From the supplement of paper PMC10307832

Tests used:
Assay in all cases: relative viability (nuclei count vs DMSO), 5 days (fraction); higher = more cells survive
[1] = compound: C1CNCCC1C2=CC(=NN2)C3=CC=NC=C3
Procedure, shortened: (§1)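 A plate was accepted only when its control CV was below 25% and the cells had doubled at least once. Viability is defined from nuclear counts as treated wells divided by vehicle wells, with the median taken across plates. That median covers lung cancer cell lines grown in 1536-well plates, dosed by pinning at five √10-spaced library-drug concentrations, and counted in MetaXpress from 4× Hoechst images after 5 days.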

[2] = compound: C[C@@H](N)c1ccc(C(=O)Nc2ccnc3[nH]ccc23)cc1
Procedure, shortened: as §1

Tanzisertib = compound: O[C@H]1CC[C@H](Nc2ncc3nc(Nc4c(F)cc(F)cc4F)n([C@H]4CCOC4)c3n2)CC1 [Tanzisertib]
Procedure, shortened: as §1

[3] = compound: C1CNCCC1C2=CC(=NN2)C3=CC=NC=C3 + Cc1nc(NC(=O)N2CCC[C@H]2C(N)=O)sc1-c1ccnc(C(C)(C)C(F)(F)F)c1 [Alpelisib] (partner 2 µM)
Procedure, shortened: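 Nuclei were stained with Hoechst during a one-step fixation (final 0.05% Triton X-100, 1% formaldehyde, 1 ug/ml Hoechst) carried out 5 days after dosing, then counted on 4× images. The cells, lung cancer lines in 1536-well plates, had been dosed by pin tool the day after seeding with one drug alone or a fixed anchor-drug dose plus five library-drug doses (not always all listed) in √10 steps. Relative viability is the nuclei count in treated wells divided by that in vehicle wells, and each value is the median of duplicate plates.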

Row | Cell Line | relative viability ([1]; 0.08 µM) | relative viability ([1]; 0.8 µM) | relative viability ([1]; 2.53 µM) | relative viability ([1]; 8 µM) | relative viability ([2]; 0.04 µM) | relative viability ([2]; 0.1265 µM) | relative viability ([2]; 0.4 µM) | relative viability ([2]; 4 µM) | relative viability (Tanzisertib; 0.08 µM) | relative viability (Tanzisertib; 0.253 µM) | relative viability (Tanzisertib; 0.8 µM) | relative viability (Tanzisertib; 2.53 µM) | relative viability (Tanzisertib; 8 µM) | relative viability ([3]; first compound 0.08 µM) | relative viability ([3]; first compound 0.8 µM) | relative viability ([3]; first compound 2.53 µM) | relative viability ([3]; first compound 8 µM) | relative viability ([2]; 1.265 µM)
1 | NCI-H1703 | 0.874 | 1.2 | 1.01 | 0.94 | 0.794 | 0.863 | 0.757 | 0.906 | 1.14 | 0.899 | 0.843 | 0.717 | 0.719 | 0.345 | 0.268 | 0.347 | 0.278 | –
2 | EKVX | 1.03 | 0.877 | 1.12 | 0.989 | 1.09 | 1.12 | 1.12 | 0.885 | 1.08 | 1.05 | 0.96 | 0.901 | 0.723 | 0.738 | 0.573 | 1.03 | 0.818 | 0.811
3 | EBC-1 | 1.09 | 0.981 | 1.06 | 1.02 | 1.06 | 1.01 | 1.08 | 0.991 | 1.16 | 0.991 | 0.971 | 0.871 | 0.825 | 0.926 | 0.704 | 0.819 | 0.857 | 1.01
4 | NCI-H460 | 0.939 | 1.05 | 0.971 | 1.01 | 0.963 | 0.997 | 1.06 | 0.993 | 0.994 | 0.976 | 0.992 | 0.982 | 0.98 | 0.381 | 0.343 | 0.593 | 0.62 | 0.851
5 | LCLC-97TM1 | 1.05 | 0.884 | 1.33 | 0.947 | 1.18 | 0.868 | 1.16 | 0.983 | 1.03 | 0.997 | 1.03 | 0.941 | 0.59 | 0.224 | 0.205 | 0.241 | 0.225 | 0.843
6 | COR-L23 | 1.02 | 1.19 | 0.991 | 0.982 | 0.913 | 1.17 | 0.941 | 0.646 | 1.06 | 1.04 | 1.07 | 1.06 | 1.04 | 0.821 | 0.925 | 0.969 | 0.736 | 0.878
7 | NCI-H1355 | 0.955 | 0.957 | 1.08 | 0.977 | 0.961 | 1.01 | 1.12 | 0.986 | 1.08 | 0.978 | 1.09 | 0.96 | 0.911 | 0.826 | 0.706 | 0.804 | 0.822 | 0.909
8 | NCI-H1666 | 0.927 | 1.04 | 1.11 | 0.981 | 1.13 | 1.06 | 1.23 | 1.26 | 0.966 | 1.04 | 1.03 | 1.07 | 1.09 | 0.907 | 0.849 | 1.18 | 1.13 | 1.23
9 | EPLC-272H | 0.902 | 0.94 | 0.929 | 0.98 | 0.9 | 0.973 | 1.11 | 0.791 | 1.14 | 0.95 | 1.09 | 0.908 | 0.761 | 0.99 | 0.774 | 0.953 | 0.983 | 0.356
10 | NCI-H1651 | 0.956 | 1.01 | 0.989 | 0.967 | 1.02 | 1 | 1.07 | 1.09 | 1.03 | 1.01 | 0.933 | 0.886 | 0.92 | 0.767 | 1.09 | 0.904 | 1 | 1.13
11 | HCC-44 | 0.999 | 1.05 | 1 | 0.999 | 0.95 | 0.988 | 1.03 | 0.941 | 0.985 | 1.11 | 1.07 | 1.04 | 1.11 | 0.815 | 0.7 | 0.794 | 0.794 | 0.927
12 | SW 1573 | 0.709 | 1.06 | 1.15 | 1.09 | 1.13 | 1.04 | 1.08 | 0.803 | 1.14 | 0.938 | 1 | 1.01 | 0.909 | 0.722 | 0.625 | 0.774 | 0.755 | 0.966
13 | PC-3 [JPC-3] | 1.02 | 1 | 1.08 | 1.03 | 0.986 | 1.04 | 0.997 | 0.884 | 1.02 | 1.06 | 1.11 | 0.983 | 0.871 | 1 | 1.03 | 1.05 | 1.02 | 0.949
14 | LOU-NH91 | 1.1 | 1.02 | 1.05 | 0.945 | 0.811 | 0.972 | 0.861 | 0.755 | 0.995 | 0.988 | 0.909 | 0.995 | 0.657 | 0.698 | 0.677 | 0.811 | 0.749 | 0.607
15 | PC-14 | 1.01 | 1.06 | 1.13 | 0.987 | 0.906 | 0.979 | 0.995 | 0.779 | 1.06 | 1.07 | 0.996 | 0.984 | 0.546 | 0.938 | 0.913 | 1.1 | 0.923 | 0.707
16 | NCI-H2087 | 1 | 1.12 | 0.996 | 0.96 | 0.988 | 1.01 | 0.916 | 0.711 | 1.19 | 0.969 | 1.25 | 1.09 | 0.916 | 0.862 | 1.07 | 1.07 | 0.985 | 0.92
17 | LU99A | 0.948 | 1.01 | 1.04 | 0.946 | – | 0.989 | 0.96 | 0.692 | 1.1 | 1.03 | 1.03 | 1.11 | 0.938 | 0.545 | 0.579 | 0.65 | 0.566 | 0.924
18 | BEN | 0.825 | 0.888 | 0.984 | 1.04 | 0.927 | 0.954 | 1.04 | 0.718 | 0.977 | 1.01 | 0.997 | 1.08 | 0.832 | 0.712 | 1.07 | 0.936 | 0.984 | 1.01
19 | SK-LU-1 | 1.04 | 0.972 | 1.2 | 1.02 | 0.986 | 1.04 | 1 | 0.833 | 1.19 | 1.05 | 1.02 | 1.1 | 1.01 | 1.08 | 1.06 | 1.05 | 0.942 | 0.886
20 | NCI-H1975 | 0.969 | 0.873 | 0.998 | 0.964 | 0.838 | 0.875 | 0.942 | 0.602 | 0.935 | 1.02 | 0.934 | 0.955 | 0.874 | 0.667 | 0.622 | 0.58 | 0.629 | 0.72
21 | RERF-LC-KJ | 0.868 | 1.01 | 1.03 | 0.943 | 1.02 | 1.01 | 1.16 | 1.02 | 1.13 | 1 | 1.01 | 0.972 | 0.87 | 0.803 | 0.709 | 0.963 | 0.89 | 1.08
22 | A549 | 0.872 | 1.03 | 1.07 | 1.05 | 1.02 | 1.03 | 1.19 | 0.829 | 1 | 0.99 | 0.976 | 1 | 0.856 | 0.55 | 0.65 | 0.881 | 0.848 | 0.944
23 | NCI-H441 | 0.908 | 1.12 | 1.06 | 0.912 | 1.05 | 1.15 | 1.31 | 0.827 | 1.09 | 0.888 | 0.93 | 0.887 | 0.891 | – | 0.628 | 0.833 | 0.708 | 0.906
24 | LCLC-103H | 1.06 | 0.873 | 0.919 | 0.98 | 1.01 | 0.964 | 0.971 | 0.81 | 1.1 | 1.05 | 1.12 | 1 | 1.04 | 1.05 | 0.966 | 1.05 | 1 | 0.917
25 | HCC-78 | 1.04 | 0.706 | 1 | 1.03 | 1.23 | 0.933 | 1.23 | 0.92 | 1.06 | 1.02 | 0.986 | 0.97 | 0.682 | 0.344 | – | 0.37 | 0.411 | 0.72
26 | NCI-H1915 | 0.968 | 1.07 | 0.999 | 0.977 | 0.856 | 1.02 | 0.962 | 0.884 | 1.12 | 1.04 | 0.957 | 1.01 | 0.875 | 1 | 1.06 | 1.07 | 1.09 | –
